Consider 3 molecules from PMC11352099 (RSC Medicinal Chemistry, 2024).

For one data set, the target named is SARS-CoV-2 nsp14 MTase (Severe acute respiratory syndrome coronavirus 2, UniProt P0DTD1). The data set can be described thus: biochemical. To be noted: for Hill slope: Table S1, dose-response curve, variable slope model. In kind it is biochemical.
Data set [1] is described as follows: in vitro. To be noted: human.
The conditions of data set [2]: microsomes, 0.75 h, 10 µM, pH 7.4.
The next data set has as its target human RNMT (Homo sapiens, UniProt O43148). The data set is described as follows: Off-target inhibition of human RNMT. The settings on record: for inhibitory activity against RNMT: 25 μM concentration of inhibitor. In kind it is biochemical. An excerpt:
Human cells rely on several MTases; therefore, it is necessary to assess the possible off-target effect. […]

The conditions of data set [3]: 120 min, 10 μM.
Data set [4] is described as follows: in vitro. To be noted: human; for Papp B→A at 2 h, 10 µM / Papp A→B at 2 h, 10 µM: Caco-2, pH 7.4; for efflux ratio at 2 h, 10 µM: Caco-2. How it is done: (§1) 3.5. Caco-2 permeability assay
(§2) Transepithelial bi-directional transport of compounds (10 µM, pH 7.4/7.4) was tested on 21-day differentiated Caco-2 monolayers. Briefly, the cells were seeded at a density of 67 ,500 cells per 96-well plate insert (Millicell®, Merck KGaA, Darmstadt, Germany). They were left to differentiate for 21 days with medium exchange every 2–3 days. Prior to the experiment, the medium from both apical and basolateral well was exchanged for HBSS buffer (containing 10 mM HEPES and 25 mM glucose) and left to equilibrate for 30 min. Compound permeability was assayed by replacing pure HBSS with HBSS containing 10 μM compounds and 220 μM Lucifer yellow (LY) solution in an apical insert (A to B transport) or in a basolateral well (B to A transport). The tre ated cells were then returned to the incubator for 2 h at 37 °C. After that, samples were collected from both apical inserts and basolateral wells and analyzed using LC -MS/MS (SCIEX Triple Quad™ 7500 QTRAP® Ready). LC separation was done on Synergi 4µm Fusion 50 × 2 mm column (Phenomenex) using a water/acetonitrile gradient with 0.1% formic acid starting from 2 to 98% for 4.5 min.
(§3) The apparent permeability coefficient (Papp) was calculated from t he following equation: Papp = (dQ / dt) / C0 * A, where dQ/dt is the rate of absorption of the drug across the cells, C0 is the donor compartment concentration at time zero, and A is the area of the monolayer. Efflux ratio was expressed as (Papp B -A) / (Papp A-B). Recovery (%) was determined as (total compound mass i n donor and receiver compartments at the end of the incubation / initial compound mass in the donor compartment) x 100. The data represent means ± SD of two independent experiments performed in triplicate. […]
(§4) were used as control compounds.
(Caco-2 cells form a polarised layer with tight junctions and transporters.)

The next data set relates to Caco-2 monolayers. The data set is described as follows: in vitro. The settings on record: Caco-2. How it is done: as §1, §2, §3, §4
For data set [5], the system named is SARS-CoV-2 strain hCoV-19/Czech Republic/NRL_6632_2/2020. The data set can be described thus: microbe, parasite or virus in culture. In kind it is cell-based. To be noted: Calu-3 cell line.
The conditions of data set [6]: 120 min, 10 μM. This is another data set of the same source.
The conditions of data set [7]: microsomes, 0.75 h, 10 µM, pH 7.4. The source holds these as a separate data set.
A short description of data set [8]: in vitro. The settings on record: mouse, plasma.
Where [9] appears, read: Table 1 and text, N.I., no inhibition, read-out: IC50.
Setting [10] is: Severe acute respiratory syndrome coronavirus 2, 72 h, MOI ∼0.01, 3 days, read-out: EC50 (antiviral effect).

Structures are written as SMILES. Read-outs that look alike come from different tables or passages of the source. Some results are limits rather than exact numbers.

Chain of human RNMT (O43148 whole entry): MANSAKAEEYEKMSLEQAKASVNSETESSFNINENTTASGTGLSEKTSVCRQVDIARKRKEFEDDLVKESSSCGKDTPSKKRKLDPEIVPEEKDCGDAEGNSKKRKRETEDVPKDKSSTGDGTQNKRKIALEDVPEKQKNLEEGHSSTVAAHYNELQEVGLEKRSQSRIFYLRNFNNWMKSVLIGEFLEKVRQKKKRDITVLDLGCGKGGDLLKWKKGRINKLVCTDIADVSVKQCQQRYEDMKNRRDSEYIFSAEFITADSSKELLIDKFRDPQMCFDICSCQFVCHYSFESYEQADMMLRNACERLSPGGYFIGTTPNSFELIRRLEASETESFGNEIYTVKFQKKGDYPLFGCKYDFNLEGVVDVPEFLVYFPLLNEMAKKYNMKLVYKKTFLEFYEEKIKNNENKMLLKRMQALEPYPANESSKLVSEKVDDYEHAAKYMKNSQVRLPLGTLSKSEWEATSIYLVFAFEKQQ

`Cc1cc(=O)oc2cc(NC(=O)[C@H]3O[C@@H](n4cc(C#Cc5cncnc5)c5c(N)ncnc54)[C@H](O)[C@@H]3O)ccc12` [18l]: the IC50 – broadly, the point on the concentration scale where inhibition reaches its midpoint – on SARS-CoV-2 nsp14 MTase (setting [9]) was 0.031 ± 0.005 µM; at human RNMT, more than 25 µM. Moreover, the Hill slope (in general, the slope factor of the fitted curve) at SARS-CoV-2 nsp14 MTase is recorded as -1.09. In “in vitro [1]”, this molecule yielded a CC50 at 3 days of more than 50 µM. For the same molecule, in [2], the “Microsomal stability % of the parent compound after 45 min, Human” value (shortened to “Microsomal stability % … Human”) is on record as 90 ± 4.2%. Also, the “inhibitory activity against RNMT” value against human RNMT is given as “None of the tested compounds exhibited any inhibitory activity”. The “Plasma stability % of the parent compound after 120 min, Human” value (from here on “Plasma stability % … Human”) in data set [3] was 74 ± 0.2%. The recovery at 2 h, 10 µM in the data set “in vitro [4]” (Caco-2, Recovery (%) A-B) stood at 87%. Moreover, the Papp B→A (usually the apparent permeability from the basolateral to the apical side of a cell layer) at 2 h, 10 µM in the data set “in vitro [4]” was found to be 8.3 ± 0.5 ×10⁻⁶ cm/s. In the data set with Caco-2 monolayers, the “Papp B-A” value worked out at 8.3 ± 0.5 cm/s x 10-6. Besides, the EC50 – broadly, the concentration giving half of the maximal effect – in [5] (setting [10]) is 12 ± 6 µM. Also, the “Plasma stability % of the parent compound after 120 min, Mouse” value (shortened to “Plasma stability % … Mouse”) in data set [6] is 89 ± 1.1%. Moreover, the “Microsomal stability % of the parent compound after 45 min, Mouse” value (“Microsomal stability % … Mouse” below) in data set [7] is 84 ± 2.5%.

Consider `Cc1cc(=O)[nH]c2cc(NC(=O)[C@H]3O[C@@H](n4cc(C#Cc5cncnc5)c5c(N)ncnc54)[C@H](O)[C@@H]3O)ccc12` [18n], for which, at SARS-CoV-2 nsp14 MTase (setting [9]), the IC50 worked out at 0.043 ± 0.005 µM. The molecule also gave a Hill slope on SARS-CoV-2 nsp14 MTase of -1.29. Besides, at SARS-CoV-2 nsp14 MTase (values printed in Fig. 3 (correlation with GlideScore XP), read-out: IC50), the half-inhibitory concentration (IC50) is 0.04 µM. Besides, the CC50 at 3 days in the data set “in vitro [1]” was more than 50 µM. Further, the “Microsomal stability % … Human” value in data set [2] is on record as 90 ± 2.0%. Besides, in “in vitro [8]”, the half-life – broadly, how long it takes for the measured level to halve – at 2 h, 10 µM turned out to be 1.57 h. Also, the “inhibitory activity against RNMT” value at human RNMT is on record as “None of the tested compounds exhibited any inhibitory activity”. For the same molecule, the “Plasma stability % … Human” value in [3] worked out at 93 ± 0.4%. In “in vitro [4]”, the efflux ratio (in general, a quotient of directional permeabilities that is used to spot active efflux) at 2 h, 10 µM turned out to be 0.6; the Papp A→B (usually the apparent permeability from the apical to the basolateral side of a cell layer) at 2 h, 10 µM came to 11.3 ± 3.7 ×10⁻⁶ cm/s; the Papp B→A at 2 h, 10 µM worked out at 7.3 ± 1.3 ×10⁻⁶ cm/s. In addition, in “in vitro [4]” (Caco-2, Recovery (%) A-B), the recovery at 2 h, 10 µM is 148%. In addition, in “in vitro [4]” (Caco-2, Recovery (%) B-A), the recovery at 2 h, 10 µM worked out at 110%. In the data set on Caco-2 monolayers, the “Papp A-B” value is given as 11.3 ± 3.7 cm/s x 10-6 and the “Papp B-A” value was 7.3 ± 1.3 cm/s x 10-6. Further, in data set [5] (setting [10]), the 50% effective concentration (EC50) amounted to 10 ± 3 µM. In data set [5] (Severe acute respiratory syndrome coronavirus 2, Table S3, read-out: EC50), the concentration giving a half-maximal response (EC50) came out at 9.8 µM. For the same molecule, the “Plasma stability % … Mouse” value in data set [6] is recorded as 41 ± 0.7%. Moreover, in data set [7], the “Microsomal stability % … Mouse” value turned out to be 85 ± 0.6%.

Regarding `Cc1cc(=O)[nH]c2cc(N(C)C(=O)[C@H]3O[C@@H](n4cc(C#Cc5cncnc5)c5c(N)ncnc54)[C@H](O)[C@@H]3O)ccc12` [18q], the IC50 on SARS-CoV-2 nsp14 MTase (setting [9]) was determined as 0.89 ± 0.12 µM. Moreover, the Hill slope on SARS-CoV-2 nsp14 MTase is recorded as -1.02. For the same molecule, the half-maximal inhibitory concentration (IC50) at SARS-CoV-2 nsp14 MTase (Table S1, read-out: IC50 (inhibitory activity)) was 0.891 µM. For the same molecule, the “Microsomal stability % … Human” value in data set [2] was found to be 107 ± 6.6%. In addition, the “inhibitory activity against RNMT” value at human RNMT is “None of the tested compounds exhibited any inhibitory activity”. Besides, the “Plasma stability % … Human” value in data set [3] is on record as 80 ± 1.1%. In the data set “in vitro [4]”, the efflux ratio at 2 h, 10 µM came to 1; the Papp A→B at 2 h, 10 µM was found to be 2 ± 0.3 ×10⁻⁶ cm/s; the Papp B→A at 2 h, 10 µM is 2.1 ± 0.4 ×10⁻⁶ cm/s. The recovery at 2 h, 10 µM in “in vitro [4]” (Caco-2, Recovery (%) A-B) came to 89%. For the same molecule, the recovery at 2 h, 10 µM in the data set “in vitro [4]” (Caco-2, Recovery (%) B-A) was found to be 101%. For the same molecule, in the data set with Caco-2 monolayers, the “Papp A-B” value is reported as 2.0 ± 0.3 cm/s x 10-6 and the “Papp B-A” value is on record as 2.1 ± 0.4 cm/s x 10-6. The EC50 in [5] (Severe acute respiratory syndrome coronavirus 2, read-out: EC50 (antiviral effect)) is more than 50 µM. In addition, the “Plasma stability % … Mouse” value in [6] is 86 ± 0.9%. Besides, the “Microsomal stability % … Mouse” value in data set [7] is listed as 117 ± 10.9%.
